Patent publication US9249115B2, “N,N1 substituted piperazines having combined antiaggregant, anticoagulant and vasodilatory activity, and method for producing same” (Vertex Closed Joint Stock Company, priority 2011, dated 2016)

Legend:
mesentery venules = assay: Vasodilator properties, microcirculatory vessel responsiveness to noradrenalin, venules; type: in vivo, Wistar male rats
Protocol: Vasodilator properties of N,N′-substituted piperazines were evaluated according to their influence on microcirculatory vessel responsiveness.
The studies were done on Wistar male rats with mass of 300±30 g (laboratory animals nursery “Rappolovo”, RAMS). The animals were kept with unlimited food (standard ration for laboratory rats K-120 by <<Inform-korm>>, Russia) and water allowance.
The solutions of N,N′-substituted piperazines and physiological (control) solution were introduced via bolus injection within 1 min into caudal vein of non-anaesthetized animals according to the dosage of 5.0 ml per 1 kg. Immediately after the introduction the animals were put in separate standard cages for observation.
In 30 min after the injection the animals were anaesthetized (thiopental sodium, 60 mg/kg intraperitoneally). The loop of small intestine adjoined to mesoappendix was retrieved through inferomedian incision. To study microcirculation in mesentery venules and arterioles in transmitted light the rat was placed on thermostated microscope objective table. The application of noradrenalin solution (Aguettant, 2 mg/ml, Laboratoire AGUETTANT, France) was done directly on the mesentery (Furness J. B., Marshall J. M., 1974; Yantareva L. I., 2004).
The study of microcirculatory vessels was done with LUMAM I1 microscope (LOMO, Russia). The recording of video data was done with the camera (Optics and Electronics ISTA Ltd) attached to a personal computer. The processing of data was done with Video-Test 4.0 software (ISTA Ltd., Russia). The diameter of the vessel wall (D, m) before and after the application of noradrenalin and the starting time of blood flow slowdown induced by noradrenalin were measured (the measurements were done for 1 min after the application).

[1] = test system: ADP-induced thrombocyte aggregation; assay: ADP-induced thrombocyte aggregation, donor human thrombocyte enriched plasm; type: cell-based; details: ADP inductor; for MA, %: human thrombocyte plasm
Protocol: (§1) The study of antiaggregant and anticoagulant properties of N,N′-substituted piperazines on the sample of donor human blood. The blood was collected by donor ulnar vein punction with dry sharp needle without syringe. The administration of drugs that influence on thrombocyte function was cancelled in 7÷10 days before the experiment.
(§2) In graduated plastic centrifuge tube 1 ml of 3.8% basic trisodium citrate solution with pH=7.4 was placed. The ulnar vein was punctuated, the freely effluent blood was collected up to 10 ml mark, the mixture was instantly stirred to prevent air bubbles appearance. The collected and stabilized blood was split in two 5 ml portions in two tubes.
(§3) To obtain thrombocyte enriched plasm the stabilized blood was spinned at 1000 rpm (150 g) for 8 min at room temperature. The repeated spinning of the blood at 3200 rpm (2300 g) for 20 min at 22° C. yielded thrombocyte depleted plasm.
The study of anticoagulant activity was done within 2 h after thrombocyte enriched plasm obtaining. The plasm was normalized to achieve thrombocyte concentration of 200-250×10^9/L by addition of thrombocyte-free plasm. The concentration of thrombocytes was measured on SOLAR AR 2110 analyzer.
Antiaggregant properties of N,N′-substituted piperazines were evaluated by their influence on thrombocyte aggregation in tests with ADP-, collagen- and ristocetin-induced aggregation. To dissolve N,N′-substituted piperazines and to dilute reagents Tris-HCl-buffer with pH=7.4 was used.
As the general characteristic of thrombocyte aggregation activity the maximum amplitude (MA) of aggregation was taken on. That is the peak value of transmittance coefficient of the sample after aggregation agent introduction expressed in % relative to the transmittance of thrombocyte-free plasm. The response was registered on ascending linear segment of aggregation curve for 16 s.
The measurements were done using 4-channel CHRONO-LOG 490-4D analyzer (CHRONO-LOG, USA). The temperature in the cell was 37° C., the spinning speed of magnetic stirrer was 1200 rpm.
In a cuvette 0.5 ml of N,N′-substituted piperazine solution was placed, then 0.4 ml of normalized thrombocyte plasm was added. The mixture was stirred and incubated at 37° C. for 5 min. The cuvette was placed in aggregometer, then 0.05 ml of aggregation inductor solution was added (ADP or collagen or ristocetin). Thrombocyte aggregation was measured for 3 min.
ADP-induced reversible thrombocyte aggregation test utilized CHRONO-PAR ADP reagent (CHRONO-LOG, USA) with 10 mol concentration. Primary (reversible) thrombocyte aggregation was evaluated by the response on addition of ADP threshold dose (ADP concentration is 1 mol) to plasm.

[2] = test system: thrombocyte depleted plasm coagulation; assay: Activated partial thromboplastin time (APTT), anticoagulant properties; type: biochemical, human; details: for APTT: thrombocyte depleted plasm
Protocol: as §1, §2, §3
To study anticoagulant properties of N,N′-substituted piperazines activated partial thromboplastin time (APTT) was measured. That is the ability of N,N′-substituted piperazines to increase thrombocyte depleted plasm coagulation time compared to the ability of control sample. The set of reagents for APTT determination (Russian Scientific Research Institute of Hematology and Transfusiology Ministry of Health of Russian Federation by Technical Regulation 9398-214-01966456-99) and COAG-A-MATE® XM coagulometer (ORGANON TEKNIKA, USA) were used.
The solutions of N,N′-substituted piperazines were mixed with thrombocyte depleted plasm at 1:1 ratio, then 0.1 ml of APTT reagent was added, the mixture was incubated in the cuvette for 5 min at 37° C., then 0.1 ml of 0.277% CaCl2 solution was added. The time of coagulation (in seconds) was measured.

[3] = 0.01 mmol/kg, noradrenalin 10^−6 g/ml
[4] = 0.025 mmol/kg, noradrenalin 10^−7 g/ml

In the case of `O=C(O)/C=C/c1ccc(Cn2ccnc2)cc1` [Ozagrel, reference compound], the “% of vessel constriction” value (mesentery venules; [3]) is reported as 44%, the “Blood flow slowdown, Latent period of slowdown” value (mesentery venules; [3]) is reported as 32 ± 4 s and the “% of vessel constriction” value (mesentery venules; [4]) is reported as 27%. The “Blood flow slowdown, Latent period of slowdown, s” value (mesentery venules; [4]) was “No slowdown”, the “MA, %” value ([1]; 1.25 mmol/L) was 12.9 ± 2.1% and the “MA, %” value ([1]; 2.50 mmol/L) was 10.6 ± 2.5%. For the same compound, the “MA, %” value ([1]; 5.0 mmol/L) was 9.6 ± 2.5%, the “MA, %” value ([1]; 7.5 mmol/L) was 4.2 ± 1.2% and the inhibition at 1250 µM ([1]; Homo sapiens, 1.25 mmol/L, read-out: (MA0-MAx): MA0 * 100%) was 2.3%. The inhibition at 2500 µM ([1]; Homo sapiens, 2.50 mmol/L, read-out: (MA0-MAx): MA0 * 100%) was 19.7%, the inhibition at 5000 µM ([1]; Homo sapiens, 5.0 mmol/L, read-out: (MA0-MAx): MA0 * 100%) was 63.6% and the inhibition at 7500 µM ([1]; Homo sapiens, 7.5 mmol/L, read-out: (MA0-MAx): MA0 * 100%) was 68.2%. The “(APTTx-APTT0): APTT0 * 100%” value ([2]; 2.5 mmol/L) was 7.2%, the “APTT” value ([2]; 2.5 mmol/L) was 51.8 ± 1.7 s and the “(APTTx-APTT0): APTT0 * 100%” value ([2]; 4.1 mmol/L) was 10.0%. The “APTT” value ([2]; 4.1 mmol/L) was 53.1 ± 3.0 s, the “(APTTx-APTT0): APTT0 * 100%” value ([2]; 8.3 mmol/L) was 19.9% and the “APTT” value ([2]; 8.3 mmol/L) was 57.9 ± 2.5 s. The “(APTTx-APTT0): APTT0 * 100%” value ([2]; 12.5 mmol/L) was 29.8% and the “APTT” value ([2]; 12.5 mmol/L) was 62.7 ± 2.1 s.
